Laboratory results taken from article PMC8752738, “A propolis-derived small molecule ameliorates metabolic syndrome in obese mice by targeting the CREB/CRTC2 transcriptional complex” (Nature Communications, 2022).
Values joined by “and” are separate entries in the source; they are usually repeats but may differ in a detail not shown here. Equal entries are not always repeated.

Legend:
HIS-CRTC2-S171A proteins = biological target: T1, HIS-CRTC2-S171A proteins (Homo sapiens, UniProt Q53ET0, S171A); assay: Surface plasmon resonance, immobilized HIS-CRTC2-S171A; format: binding
T1 construct: made in house; host or cells: E. coli

FGF21 = assay: Immunoblotting of plasma and liver FGF21; format: in vivo, mouse
mouse Per2 promoter = assay: Per2-Luc reporter (CREB/CRTC2-mediated transcription of PER2); format: cell-based; details: preliminary research
Protocol: SREBP1 (m-SREBP1) and fat acid synthase (FASN) in glucagon- insulin treated cells, […]
mTORC1 activity at the same time. mTORC1 h as been reported to enh ance SREBP1c mediated lipogenesis m ainly by increasing the mat uration of SREBP1c prot eins (2015, The CREB coactivator CRTC2 controls hepatic lipid metabolism by regulating S REBP1, Nature, […]
Aug 13;524(7564):243- 6.). […]
hyperactivation caused by liver specific TSC1 deletion is insufficient to induce SREBP1c activation and de novo lipogenesis in the liver of high fat diet fed mice (Akt stimulates hepatic SREBP1c and lipogenesis through parallel mTORC1- dependent and independent pathways. Cell Metabolism . 2011. 14.1: 21- 32). Considered the requirement of TSC1 for PER2 to inhibit mTORC1 activity, the reduction of PER2 by APC may not be sufficient to induce SREBP1c activati on. Moreover, ou r dat a su ggest that APC redu ces the trans cription of SREBP1c in vivo (Figures 5b and 5g) , which would result in the decrease of whole SREBP1c protein levels and overcom e the effect on lipogenesis caused by APC activation of mTORC1. […]
Data are repres ented as mean ± SEM (n=4). *, p < 0.05; **, p< 0.01. pval ues wer e determined by one-way ANOVA followed Dunnett’s multiple comparisons test (Left).
The over-expr essed proteins FLAG- CREB and HA-CRTC2-171A were detected in the lysates of the luciferase reporter assay by immunoblotting (Right). […]

[1] = tested on: G6pc promoter (G6p-Luc) in the liver; assay: Live imaging of hepatic G6p-Luc reporter; format: in vivo, mouse
Source text: Complete DNA sequences encoding human Creb and Crtc2 were cloned in the plasmids psc811 and psc804 to express BD-CREB and VP16AD-CRTC2 recombined proteins, respectively. GAL4-luciferase and RSV (Rous Sarcoma Virus)-Renilla were constructed using the pGL3 plasmid. pGEX5X-1 and pET28C were used to construct plasmids for GST- and HIS-tagged proteins expression, respectively. Adenoviruses encoding Ad-HA-Crtc2, Ad-GFP, and Ad-RSV-β-Gal (galactosidase) have been described previously. For infecting primary hepatocytes, 0.5–1 MOI adenovirus was employed. For live imaging experiments, 10^8 plaques forming units (pfu) Ad-G6P-Luc and 5 × 10^7 pfu Ad-RSV-β-gal adenovirus were delivered to mice by tail vein injection. Mice were then imaged on day 3–5 after adenovirus delivery.
After two days of tail intravenously delivery of Ad-G6p-Luc (10^8 pfu) and Ad-RSV-β-Gal (5 × 10^7 pfu) adenoviruses, mice were orally administered propolis or i.p. injected with APC one dose per day for another 3 days. After 16 h fasting, mice were anesthetized using gaseous isoflurane (Abbott), were i.p. injected with 100 mg/kg sterile firefly D-luciferin (Biosynth AG), and 15 min later, imaged by IVIS-100 Imaging System and analyzed with Living Image Software (Xenogen). Liver lysates were prepared to determine β-Gal activity. Luciferase activity detected for each mouse was normalized to the β-Gal expression in the liver.

CREB / CRTC1 interaction = biological target: T2, CREB / CRTC1 interaction (Homo sapiens, UniProt P16220); assay: Co-immunoprecipitation of GFP-CRTC1 by MYC-CREB, HEK293T; format: cell-based; details: overexpression HEK293T cells, APC 10 μM
T2 construct: expressed in transfected cells; host or cells: HEK293T
Protocol: 1 Supplementary Figure 2.
2 a) Immunoblot of HA-P300 recovered from HEK293T cell lysate using GST-CREB beads. APC
3 (10 μM) was incubated with cells for 1-h before FKS (10 nM) stimulation and was included in the
4 following pull-down mixtures (n=3). One of two independent experiments presented here.
5 b) Immunoblot for recovered GFP-CRTC1 or (c) GFP-CRTC3 immunoprecipitated by MYC-CREB
6 from overexpression HEK293T cell line. APC (10 μM) was incubated with cells for 1-h before FKS
7 (10 nM) stimulation and was included in the following pull-down mixtures. One of two independent
8 experiments presented here.
9 d) SPR sonogram traces of APC binding with HIS-CREB proteins immobilized to NTA-chip. The
10 concentration series of APC was as indicated.
11 e) SPR sonogram traces of APC flowing through HIS-CRTC2-S171A proteins immobilized on
12 NTA-chip. The concentration of APC was as indicated.
13 f) The luciferase enzymatic activity of HEK293T incubated with APC. Cells over-expressed
14 luciferase CRE-Luc reporter and were stimulated by FSK (10 nM) for 5-h before lysis, which was
15 then incubated with APC (concentration indicated) for 30 min before luciferase activity determination
16 (n=3 per treatment). Data are represented as mean ± SEM. *, p < 0.05; **, p < 0.01; p values were
17 determined by one-way ANOVA followed Dunnett’s multiple comparisons test. […]

T2 sequence (P16220 whole entry): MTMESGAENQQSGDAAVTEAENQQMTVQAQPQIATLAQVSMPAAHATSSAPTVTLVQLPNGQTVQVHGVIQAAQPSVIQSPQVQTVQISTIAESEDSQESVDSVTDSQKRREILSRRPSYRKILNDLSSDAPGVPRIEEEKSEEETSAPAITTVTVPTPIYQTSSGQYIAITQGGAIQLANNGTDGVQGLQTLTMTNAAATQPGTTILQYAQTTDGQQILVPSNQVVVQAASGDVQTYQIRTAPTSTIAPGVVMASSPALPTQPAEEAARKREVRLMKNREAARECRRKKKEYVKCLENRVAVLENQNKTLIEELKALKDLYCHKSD
T1 sequence (Q53ET0 whole entry S171A): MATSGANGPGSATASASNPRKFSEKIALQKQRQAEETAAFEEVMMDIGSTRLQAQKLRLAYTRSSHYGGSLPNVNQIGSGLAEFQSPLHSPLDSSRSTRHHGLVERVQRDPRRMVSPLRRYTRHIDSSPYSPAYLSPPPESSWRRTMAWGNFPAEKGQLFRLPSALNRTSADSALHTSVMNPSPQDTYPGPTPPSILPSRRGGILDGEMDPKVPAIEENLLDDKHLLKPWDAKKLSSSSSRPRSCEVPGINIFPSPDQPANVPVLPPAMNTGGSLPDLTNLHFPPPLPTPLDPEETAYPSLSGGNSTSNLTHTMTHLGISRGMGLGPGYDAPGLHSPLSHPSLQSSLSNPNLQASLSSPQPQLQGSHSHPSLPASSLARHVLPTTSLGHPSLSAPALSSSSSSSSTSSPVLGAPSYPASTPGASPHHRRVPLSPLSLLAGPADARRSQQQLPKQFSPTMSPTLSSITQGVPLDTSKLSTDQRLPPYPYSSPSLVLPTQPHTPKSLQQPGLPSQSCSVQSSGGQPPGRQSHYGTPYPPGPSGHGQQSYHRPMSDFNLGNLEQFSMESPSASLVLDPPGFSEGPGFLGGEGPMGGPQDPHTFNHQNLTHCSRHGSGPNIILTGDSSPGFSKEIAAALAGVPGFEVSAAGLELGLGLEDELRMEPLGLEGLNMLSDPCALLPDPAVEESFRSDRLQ

In the case of `CC(C)=CCc1cc(C=CC(=O)O)cc(CC=C(C)C)c1O` [APC, 3,5-diprenyl-4-hydroxycinnamic acid], the “affinity to CRTC2 (SPR)” value (HIS-CRTC2-S171A proteins) is reported as “no affinity”, the “liver FGF21 in WT, group mean (Mean 2)” value (FGF21; Supp. Fig.10 f down, WT mice, n=3, VEH mean 1.024) is reported as 2.405 and the “Bands density of FGF21 in the liver” value (FGF21; Supp. Fig.10 f down, WT mice, oral, individual replicates, Veh about 1.02) is reported as 2.277 and 2.103 and 2.8341. The “Bands density, plasma FGF21 in WT” value (FGF21; Supp. Fig.10 f up, WT mice, individual replicates, VEH about 1.08) was 1.716 and 1.667 and 1.521, the “Bands density, plasma FGF21 in WT, group mean (Mean 2)” value (FGF21; Supp. Fig.10 f up, WT mice, n=3, VEH mean 1.077) was 1.634 and the “plasma and liver FGF21” value (FGF21; wild-type control group, oral 20 mg/kg, 3 weeks) was “increased”. For the same molecule, the “CREB/CRTC2-mediated transcription of PER2” value (mouse Per2 promoter) was “reduced”, the “G6P-Luc reporter activity in the livers” value ([1]; DIO mice, i.p. 20 mg/kg daily, 3 days) was “substantially decreased” and the “Relative G6P-LUC activity, folds (mean of column B)” value ([1]; Figure 8a right, group mean, n=5, VEH mean 0.996) was 0.402 folds. The “Relative G6P-LUC activity, folds” value ([1]; Figure 8a right, individual mice, vs VEH) was 0.6379 folds and 0.1281 folds and 0.5105 folds and 0.3399 folds and 0.3902 folds and the “interaction of CREB and CRTC1” value (CREB / CRTC1 interaction) was “attenuated”.
